One series has as its target HDAC3 (Homo sapiens, UniProt O15379). Description: HDAC enzymatic assay, fluorescence-labeled substrate. The series is classed as biochemical. The conditions noted are these: for inhibition at 10 µM: source data of Fig. 1B.
For another series, the target named is T1, DNMT3B/3L (Homo sapiens, UniProt Q9UBC3).
T1 construct: purchased BPS Bioscience (contracted assay service)
The series is described as follows: Epigenetic panel (BPS Bioscience). The class given is biochemical. A digest of the protocol:
(§1)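 Selectivity profiling of CM-444 and CM-1758 used one test concentration, 10 μM, run twice per target.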

The next series has as its target T2, FBXL10 (Homo sapiens, UniProt Q8NHM5).
T2 construct: purchased BPS Bioscience (contracted assay service)
T2 sequence (Q8NHM5 1-1336): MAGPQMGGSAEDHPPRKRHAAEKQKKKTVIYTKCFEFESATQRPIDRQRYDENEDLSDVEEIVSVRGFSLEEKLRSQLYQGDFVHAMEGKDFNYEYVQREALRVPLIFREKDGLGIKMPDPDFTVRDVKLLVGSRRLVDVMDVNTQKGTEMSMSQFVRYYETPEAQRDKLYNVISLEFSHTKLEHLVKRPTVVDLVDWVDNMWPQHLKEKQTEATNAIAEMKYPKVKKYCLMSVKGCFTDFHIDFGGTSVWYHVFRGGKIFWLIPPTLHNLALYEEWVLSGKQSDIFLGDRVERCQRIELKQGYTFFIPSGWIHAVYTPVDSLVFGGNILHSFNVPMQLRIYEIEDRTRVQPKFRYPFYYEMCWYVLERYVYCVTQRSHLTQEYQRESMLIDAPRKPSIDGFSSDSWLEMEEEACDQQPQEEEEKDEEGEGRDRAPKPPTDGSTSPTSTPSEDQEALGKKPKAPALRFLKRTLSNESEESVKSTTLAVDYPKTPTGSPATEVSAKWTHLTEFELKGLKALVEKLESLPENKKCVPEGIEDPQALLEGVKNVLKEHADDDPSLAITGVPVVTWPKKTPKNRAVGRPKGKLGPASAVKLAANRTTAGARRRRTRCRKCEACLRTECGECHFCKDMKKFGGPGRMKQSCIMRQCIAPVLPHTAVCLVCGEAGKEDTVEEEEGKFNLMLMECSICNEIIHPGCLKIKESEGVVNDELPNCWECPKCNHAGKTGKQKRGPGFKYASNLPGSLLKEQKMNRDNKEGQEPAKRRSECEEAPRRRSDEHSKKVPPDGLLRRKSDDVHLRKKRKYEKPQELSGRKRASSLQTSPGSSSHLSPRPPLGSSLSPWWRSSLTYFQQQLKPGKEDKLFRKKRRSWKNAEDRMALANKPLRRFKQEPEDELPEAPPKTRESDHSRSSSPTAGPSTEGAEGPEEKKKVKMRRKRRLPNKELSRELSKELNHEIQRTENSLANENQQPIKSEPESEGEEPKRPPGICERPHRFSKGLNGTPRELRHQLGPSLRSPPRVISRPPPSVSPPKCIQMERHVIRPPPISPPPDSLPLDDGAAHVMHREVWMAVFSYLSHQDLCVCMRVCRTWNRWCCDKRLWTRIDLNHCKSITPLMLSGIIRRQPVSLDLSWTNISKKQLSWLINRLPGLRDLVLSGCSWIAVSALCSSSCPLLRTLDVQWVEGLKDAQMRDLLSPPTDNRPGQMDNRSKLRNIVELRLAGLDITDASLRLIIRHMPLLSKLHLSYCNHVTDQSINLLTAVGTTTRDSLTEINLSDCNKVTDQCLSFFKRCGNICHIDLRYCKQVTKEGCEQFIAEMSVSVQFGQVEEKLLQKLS
Description: Epigenetic panel (BPS Bioscience). The class given is biochemical. A digest of the protocol: as §1

For the next series, the target named is T3, NSD1 (Homo sapiens, UniProt Q96L73).
T3 construct: purchased BPS Bioscience; Eurofins (HDAC4, 5, 7-11)
T3 sequence (Q96L73 whole entry): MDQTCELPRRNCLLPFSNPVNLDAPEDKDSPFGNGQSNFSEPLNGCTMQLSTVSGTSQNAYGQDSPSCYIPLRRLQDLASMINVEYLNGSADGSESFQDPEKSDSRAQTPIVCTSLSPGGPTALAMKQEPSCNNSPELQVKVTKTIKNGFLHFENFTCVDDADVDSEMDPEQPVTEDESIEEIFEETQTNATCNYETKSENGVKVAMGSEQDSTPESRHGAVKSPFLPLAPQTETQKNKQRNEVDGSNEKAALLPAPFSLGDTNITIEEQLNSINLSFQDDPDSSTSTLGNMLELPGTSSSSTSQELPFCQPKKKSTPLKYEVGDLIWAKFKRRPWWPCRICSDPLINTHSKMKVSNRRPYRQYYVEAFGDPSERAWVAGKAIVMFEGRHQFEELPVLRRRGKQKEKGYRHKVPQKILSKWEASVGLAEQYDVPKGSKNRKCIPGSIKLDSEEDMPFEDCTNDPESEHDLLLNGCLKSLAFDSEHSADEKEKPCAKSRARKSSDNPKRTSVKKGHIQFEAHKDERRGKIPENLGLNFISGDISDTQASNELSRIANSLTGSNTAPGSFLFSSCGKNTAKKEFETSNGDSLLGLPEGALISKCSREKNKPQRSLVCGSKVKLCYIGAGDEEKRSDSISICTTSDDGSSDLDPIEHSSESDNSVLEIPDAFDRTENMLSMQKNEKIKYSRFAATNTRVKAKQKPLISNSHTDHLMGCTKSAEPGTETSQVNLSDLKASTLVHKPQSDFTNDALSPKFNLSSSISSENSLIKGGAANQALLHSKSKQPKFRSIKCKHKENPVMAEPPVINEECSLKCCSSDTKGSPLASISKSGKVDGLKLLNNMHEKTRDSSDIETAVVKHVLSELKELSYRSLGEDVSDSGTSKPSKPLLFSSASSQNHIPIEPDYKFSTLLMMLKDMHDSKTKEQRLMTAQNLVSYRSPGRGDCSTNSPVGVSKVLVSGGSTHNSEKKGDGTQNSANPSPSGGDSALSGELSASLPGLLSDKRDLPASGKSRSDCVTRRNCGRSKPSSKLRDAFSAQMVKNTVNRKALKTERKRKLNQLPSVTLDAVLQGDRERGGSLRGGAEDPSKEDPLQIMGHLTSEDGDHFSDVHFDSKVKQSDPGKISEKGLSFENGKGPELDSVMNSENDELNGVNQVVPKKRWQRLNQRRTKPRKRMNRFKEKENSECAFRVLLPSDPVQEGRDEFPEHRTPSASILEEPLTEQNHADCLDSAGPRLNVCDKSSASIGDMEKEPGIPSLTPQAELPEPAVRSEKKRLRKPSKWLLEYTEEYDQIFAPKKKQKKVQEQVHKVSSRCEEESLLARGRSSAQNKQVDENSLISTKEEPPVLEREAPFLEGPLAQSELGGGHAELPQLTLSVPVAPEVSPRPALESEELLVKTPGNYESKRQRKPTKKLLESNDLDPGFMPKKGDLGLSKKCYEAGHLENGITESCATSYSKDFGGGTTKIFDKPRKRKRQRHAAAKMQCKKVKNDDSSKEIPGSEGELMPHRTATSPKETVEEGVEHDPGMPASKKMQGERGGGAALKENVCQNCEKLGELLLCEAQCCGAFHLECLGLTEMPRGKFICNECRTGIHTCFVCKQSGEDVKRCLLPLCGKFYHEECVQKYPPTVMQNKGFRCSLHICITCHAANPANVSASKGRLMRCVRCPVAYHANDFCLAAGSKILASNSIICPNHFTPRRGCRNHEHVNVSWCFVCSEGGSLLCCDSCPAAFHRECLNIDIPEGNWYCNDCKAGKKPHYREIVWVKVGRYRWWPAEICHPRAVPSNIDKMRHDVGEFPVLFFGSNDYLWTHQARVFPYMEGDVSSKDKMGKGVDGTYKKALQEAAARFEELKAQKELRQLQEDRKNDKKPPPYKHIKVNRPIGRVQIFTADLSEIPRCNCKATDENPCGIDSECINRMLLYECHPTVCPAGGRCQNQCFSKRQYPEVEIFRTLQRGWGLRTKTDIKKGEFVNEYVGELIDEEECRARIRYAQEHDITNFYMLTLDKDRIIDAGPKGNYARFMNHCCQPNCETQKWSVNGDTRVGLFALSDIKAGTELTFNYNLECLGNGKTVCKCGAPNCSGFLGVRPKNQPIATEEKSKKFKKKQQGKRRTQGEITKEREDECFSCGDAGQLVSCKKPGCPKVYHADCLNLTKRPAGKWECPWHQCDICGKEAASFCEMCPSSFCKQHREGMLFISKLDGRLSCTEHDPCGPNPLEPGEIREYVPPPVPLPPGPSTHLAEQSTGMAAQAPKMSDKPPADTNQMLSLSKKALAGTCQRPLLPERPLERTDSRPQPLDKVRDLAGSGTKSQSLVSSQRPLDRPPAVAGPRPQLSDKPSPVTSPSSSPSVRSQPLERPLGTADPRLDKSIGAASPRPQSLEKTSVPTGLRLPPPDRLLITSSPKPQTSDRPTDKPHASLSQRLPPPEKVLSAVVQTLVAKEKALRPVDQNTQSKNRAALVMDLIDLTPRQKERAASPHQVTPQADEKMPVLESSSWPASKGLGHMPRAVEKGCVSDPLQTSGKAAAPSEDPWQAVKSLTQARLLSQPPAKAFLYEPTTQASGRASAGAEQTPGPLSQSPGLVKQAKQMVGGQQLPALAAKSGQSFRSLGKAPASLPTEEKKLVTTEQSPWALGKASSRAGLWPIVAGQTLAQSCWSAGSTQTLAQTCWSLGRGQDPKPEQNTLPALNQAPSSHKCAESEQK
The series is described as follows: Epigenetic panel (BPS Bioscience). The series is classed as biochemical. In outline: as §1

A further series has as its target T4, SETDB1 (Homo sapiens, UniProt Q15047).
T4 construct: purchased BPS Bioscience; Eurofins (HDAC4, 5, 7-11)
Description: Epigenetic panel (BPS Bioscience). The class given is biochemical. A digest of the protocol:
as §1

A further series can be described thus: Cytotoxicity (LC50). The class given is cell-based. Conditions: human, PBMCs from healthy donors, 72-h exposure.

The text below walks through data of paper PMC11219871, “Epigenetic-based differentiation therapy for Acute Myeloid Leukemia” (Nature Communications, 2024).

Each structure is given as a SMILES string.

Chain of HDAC3 (O15379 whole entry): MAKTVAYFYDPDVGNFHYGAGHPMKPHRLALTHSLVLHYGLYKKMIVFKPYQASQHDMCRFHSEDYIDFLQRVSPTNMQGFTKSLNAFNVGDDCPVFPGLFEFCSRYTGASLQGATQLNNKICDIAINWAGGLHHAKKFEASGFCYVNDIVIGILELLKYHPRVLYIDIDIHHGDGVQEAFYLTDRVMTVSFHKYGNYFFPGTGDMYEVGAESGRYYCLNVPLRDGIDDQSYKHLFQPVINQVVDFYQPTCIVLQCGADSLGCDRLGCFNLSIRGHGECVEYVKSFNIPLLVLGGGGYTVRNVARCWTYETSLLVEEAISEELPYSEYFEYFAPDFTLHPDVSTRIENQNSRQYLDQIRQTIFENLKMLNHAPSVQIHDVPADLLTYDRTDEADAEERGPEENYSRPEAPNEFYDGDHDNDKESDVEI
Chain of HDAC3 (Q9Y618 395-489 partner limits assumed): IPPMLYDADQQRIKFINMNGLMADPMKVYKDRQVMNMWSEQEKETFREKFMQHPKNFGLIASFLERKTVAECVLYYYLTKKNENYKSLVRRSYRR

Usually inhibition stands for the share of the control response that was lost under treatment. Read a high inhibition as strong suppression. By IC50 is commonly meant the concentration needed to halve the response being measured. High values mean a need for much substance, low ones inhibition by little substance. Broadly, the CC50 is the concentration giving 50% cytotoxicity. As for `COc1cc2nc(-c3ccc(C)o3)cc(NCC3CCN(c4ncc(C(=O)NO)cn4)CC3)c2cc1OC` [CM-444, 2-[4-[[[6,7-dimethoxy-2-(5-methyl-2-furyl)-4-quinolyl]amino]methyl]-1-piperidyl]pyrimidine-5-carbohydroxamic acid], the inhibition at 10 µM against HDAC3 worked out at 90%; at DNMT3B/3L it was 68%; against FBXL10, 58%; against NSD1, 14%; on SETDB1 it was 0%. In addition, the half-inhibitory concentration (IC50) worked out at 2300 nM against DNMT3B/3L and 6700 nM on FBXL10. The compound further came in with a CC50 at 72 h in “Cytotoxicity (LC50)” of 1240 nM.

The compound `COc1cc2nc(-c3cc(C)oc3C)cc(NCC3CCN(c4ncc(C(=O)NO)cn4)CC3)c2cc1OC` [CM-1758, 2-[4-[[[2-(2,5-dimethyl-3-furyl)-6,7-dimethoxy-4-quinolyl]amino]methyl] -1-piperidyl]pyrimidine-5-carbohydroxamic acid] gave an IC50 at HDAC3 of 14 nM. Further, the inhibition at 10 µM was 90% at HDAC3; 20% on DNMT3B/3L; 34% against FBXL10; 10% at NSD1; 3% against SETDB1. This compound showed a CC50 at 72 h in “Cytotoxicity (LC50)” of 2410 nM.
